19 compounds from patent publication US8410107B2, “N-pyridin-3-yl or N-pyrazin-2-yl carboxamides” (Hoffmann-La Roche Inc., priority 2010, dated 2013) can be followed below.

One assay has as its target T1, human CB1 receptor (Homo sapiens, UniProt P21554).
T1 construct: expressed in transfected cells; host or cells: human embryonic kidney (HEK) cells, Semliki Forest Virus system, membrane preparations
As to the kind of experiment: CB1 receptor affinity ([3H]-CP-55,940 displacement, HEK cell membranes). It is filed as binding. The settings on record: displacement of radioligand [3H]-CP-55,940. The method, then: (§1) The affinity of the compounds of the invention for cannabinoid receptors was determined using membrane preparations of human embryonic kidney (HEK) cells in which the human CB1 receptor is transiently transfected using a Semliki Forest Virus system in conjunction with [3H]-CP-55,940 as radioligand. After incubation of freshly prepared cell membrane preparation with the [^3H]-ligand, with or without addition of compounds of the invention, separation of bound and free ligand was performed by filtration over glass fiber filters. Radioactivity on the filter was measured by scintillation counting.
(§2) The ability of the compounds to displace the radioligand [^3H]-CP-55,940 was measured at a concentration of 10 μM and values provided as [% inhibition @ 10 μM] both for the CB1 and CB2 receptor assay, The lower % inhibition is, the lower the likelihood of side effects based on CB1 or CB2 receptor inhibition is.

For another assay, the target named is T2, human CB2 receptor (Homo sapiens, UniProt P34972).
T2 construct: expressed in transfected cells; host or cells: human embryonic kidney (HEK) cells, Semliki Forest Virus system, membrane preparations
T2 sequence (P34972 whole entry): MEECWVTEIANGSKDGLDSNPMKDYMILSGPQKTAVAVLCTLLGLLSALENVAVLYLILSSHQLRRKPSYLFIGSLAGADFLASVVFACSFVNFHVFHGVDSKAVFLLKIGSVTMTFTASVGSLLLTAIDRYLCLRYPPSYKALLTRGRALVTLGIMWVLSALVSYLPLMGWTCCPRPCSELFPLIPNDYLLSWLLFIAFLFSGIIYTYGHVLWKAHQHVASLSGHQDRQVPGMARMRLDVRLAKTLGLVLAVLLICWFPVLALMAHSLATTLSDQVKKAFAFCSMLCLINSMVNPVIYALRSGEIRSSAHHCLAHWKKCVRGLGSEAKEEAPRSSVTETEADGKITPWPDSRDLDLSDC
Briefly: CB2 receptor affinity ([3H]-CP-55,940 displacement, HEK cell membranes). The assay is classed as binding. The following applies: displacement of radioligand [3H]-CP-55,940. The method, then:
as §1, with “cannabinoid CB2” for “cannabinoid”, “CB2” for “CB1”, “[^3H]-CP-55,940” for “[3H]-CP-55,940”
as §2

In the next assay the test system is ABCA1 protein. As to the kind of experiment: Detection of upregulation of ABCA1 protein in cells (ApoA-I binding, high content image analysis). It is filed as cell-based. The following applies: THP-1 macrophage cells; for % increase of ABCA1 at 3 μM: 24 hrs with compound; for EC50: ABCA1 protein increasing efficacy. The protocol: The ability of compounds of the invention to increase the level of ABCA1 protein is determined in replicate cultures of THP-1 macrophage cells in 96-well microplates. Cells are plated at an initial density of 100,000 cells/well in 100 μl medium and differentiated to adherent macrophages with the addition of PMA (100 nM) for 68 hrs in 10% fetal bovine serum, 3 μl/L of b-mercaptoethanol, RPMI-1640 medium. Then, cells are incubated with RPMI-1640 medium containing 1% FCS, 25 μg/ml acetylated LDL, for 24 hours at 37°. Following incubation with acetylated LDL, cells are washed twice with 50 μl PBS and incubated with 100 μl of RPMI-1640 medium containing the compound of interest solubilized in DMSO for an additional 24 hrs. The final DMSO concentration in presence of cells is maintained at 0.5%. ApoA-I binding assay using High Content Image Analysis is initiated by replacing with fresh medium, RPMI without Phenol Red, 0.2% BSA containing AlexaFluor®647 labeled ApoA-I for 2 h/37° C./5% CO2. Then, cells are fixed with 4% Formaldehyde inPBS (15 min, RT). Following Nuclei are stained with Hoechst solution (3 μM PBS) and Cytoplasm with Cell Mask Blue (2 μg/ml PBS), 15 min, RT. Finally the stained cells are fixed with a second round of formaldehyde treatment. Fixed stained cells are washed and kept in PBS at 4° C. and can be read immediately until one month after preparation.
The Alexa Fluor 647-labeled Apolipoprotein A-I (20 nM) was prepared as follows: Human recombinant Apolipoprotein A-I (ApoA-I) was exchanged to a buffer of 0.02 M NaHCO3 at pH 8.2 on an NAP desalting column (GE Healthcare) and brought to a concentration to 40 μM (1.13 mg/ml) by adjustment with the same buffer. The ApoA-I was fluorescently labeled by incubation with Alexa Fluor carboxylic acid succimidyl ester. (Alexa Fluor 647, Invitrogen A-20006) at a 2:1 molar ratio (Alexa to ApoA-I) for 1 h under shaking at RT. The remaining unconjugated label was removed by buffer exchange to 0.02M NaHCO3 at pH 8.2.
Imaging and data collection were performed on an OPERA confocal microplate imaging reader using a 20× water immersion objective and UV360 or 405 laser to identify the cell nuclei and a 635 laser to identify the fluorescent ApoA-I. Eight fields of view are captured per well. Image capture and analysis was performed with the Acapella software. Background fluorescence detected in control wells without ApoA-I was subtracted.
Using XLfit3 program (ID Business Solutions Ltd. UK), the model 205 for Dose Response One Site is used to calculate the EC50 values. The compounds of the present invention increase the level of ABCA1 protein by more than 45% at a concentration of 3 μM. […] Even more preferably, the compounds of the present invention have EC50 values in a range of 0.1 μM to 3 μM.

Bounds are passed on as bounds.

T1 sequence (P21554 whole entry): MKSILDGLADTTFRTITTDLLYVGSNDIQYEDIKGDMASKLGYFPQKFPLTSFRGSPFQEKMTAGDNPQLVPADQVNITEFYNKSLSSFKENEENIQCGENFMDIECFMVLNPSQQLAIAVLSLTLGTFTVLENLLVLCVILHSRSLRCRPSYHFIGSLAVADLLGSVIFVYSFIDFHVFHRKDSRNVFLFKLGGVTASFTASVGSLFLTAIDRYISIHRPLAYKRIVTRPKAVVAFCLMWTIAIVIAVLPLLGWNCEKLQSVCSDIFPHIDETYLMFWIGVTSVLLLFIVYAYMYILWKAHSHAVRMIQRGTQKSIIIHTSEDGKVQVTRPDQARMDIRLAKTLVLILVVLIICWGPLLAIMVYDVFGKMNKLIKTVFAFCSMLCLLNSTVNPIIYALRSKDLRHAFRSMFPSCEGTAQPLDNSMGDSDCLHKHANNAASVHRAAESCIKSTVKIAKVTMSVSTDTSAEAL

On to `O=C(Nc1cnc(OCC(F)(F)F)c(-c2ccc(Cl)cc2)c1)[C@H]1CCCO1` (racemic) [Example 70, (RS)-N-(5-(4-chlorophenyl)-6-(2,2,2-trifluoroethoxy)pyridin-3-yl)tetrahydrofuran-2-carboxamide], for which the inhibition at 10 µM on human CB1 receptor worked out at 49%; on human CB2 receptor, 15%. The “% increase of ABCA1 at 3 μM” value in the assay with ABCA1 protein was more than 45% @ 3 μM.

On to `O=C(Nc1cnc(OCC(F)(F)F)c(-c2ccc(Cl)cc2)c1)[C@H]1CCOC1` (racemic) [Example 71, (SR)-N-(5-(4-chlorophenyl)-6-(2,2,2-trifluoroethoxy)pyridin-3-yl)-tetrahydrofuran-3-carboxamide], for which the inhibition at 10 µM worked out at 41% on human CB1 receptor and 4% at human CB2 receptor. For the same compound, the “% increase of ABCA1 at 3 μM” value with ABCA1 protein is on record as more than 45% @ 3 μM.

In the case of `CCCCC(=O)Nc1cnc(OCC(F)(F)F)c(-c2ccc(Cl)cc2)c1` [Example 1, pentanoic acid[5-(4-chloro-phenyl)-6-(2,2,2-trifluoro-ethoxy)-pyridin-3-yl]-amide], the inhibition at 10 µM at human CB1 receptor amounted to 45%; at human CB2 receptor it was 9.2%. In addition, the “% increase of ABCA1 at 3 μM” value in the assay on ABCA1 protein is reported as more than 45% @ 3 μM.

In the case of `O=C(Nc1cnc(OCC(F)(F)F)c(-c2ccc(Cl)cc2)c1)c1ccccc1` [Example 2, N-[5-(4-chloro-phenyl)-6-(2,2,2-trifluoro-ethoxy)-pyridin-3-yl]-benzamide], the inhibition at 10 µM at human CB1 receptor is 33%; on human CB2 receptor it was 4.9%. In addition, a half-maximal response with ABCA1 protein (EC50) required 2690 nM.

Consider `O=C(Nc1cnc(OCC(F)(F)F)c(-c2ccc(Cl)cc2)c1)c1cccnc1` [Example 3, N-[5-(4-chloro-phenyl)-6-(2,2,2-trifluoro-ethoxy)-pyridin-3-yl]-nicotinamide], for which the results for the inhibition at 10 µM at human CB1 receptor and on human CB2 receptor were 29% and 8%, respectively. This compound also came in with a half-maximal effective concentration (EC50) with ABCA1 protein of 2280 nM.

Turning to `O=C(Nc1cnc(OCC(F)(F)F)c(-c2ccc(Cl)cc2)c1)c1ccncc1` [Example 4, N-[5-(4-chloro-phenyl)-6-(2,2,2-trifluoro-ethoxy)-pyridin-3-yl]-isonicotinamide], the results for the inhibition at 10 µM at human CB1 receptor and on human CB2 receptor were 36% and 1.9%, respectively. Besides, the “% increase of ABCA1 at 3 μM” value in the assay with ABCA1 protein is recorded as more than 45% @ 3 μM.

For the compound `CC(=O)Nc1cnc(OCC(F)(F)F)c(-c2ccc(Cl)cc2)c1` [Example 5, N-[5-(4-chloro-phenyl)-6-(2,2,2-trifluoro-ethoxy)-pyridin-3-yl]-acetamide], the values for the inhibition at 10 µM on human CB1 receptor and at human CB2 receptor were 19% and -5.4%, respectively. In the assay on ABCA1 protein, the “% increase of ABCA1 at 3 μM” value is recorded as more than 45% @ 3 μM.

As for `CCCC(=O)Nc1cnc(OCC(F)(F)F)c(-c2ccc(Cl)cc2)c1` [Example 6, N-[5-(4-Chloro-phenyl)-6-(2,2,2-trifluoro-ethoxy)-pyridin-3-yl]-butyramide], the inhibition at 10 µM is 47% at human CB1 receptor and 11% on human CB2 receptor. In addition, in the assay on ABCA1 protein, the “% increase of ABCA1 at 3 μM” value was more than 45% @ 3 μM.

For the compound `O=C(Nc1cnc(OCC(F)(F)F)c(-c2ccc(Cl)cc2)c1)c1ccccn1` [Example 7, pyridine-2-carboxylic acid[5-(4-chloro-phenyl)-6-(2,2,2-trifluoro-ethoxy)-pyridin-3-yl]-amide], the figures for the inhibition at 10 µM on human CB1 receptor and on human CB2 receptor were 13% and 1.2%, respectively. Further, the “% increase of ABCA1 at 3 μM” value in the assay with ABCA1 protein is more than 45% @ 3 μM.

Turning to `O=C(Nc1cnc(OCC2CC2)c(-c2ccc(Cl)cc2)c1)c1ccccc1` [Example 8, N-[5-(4-chloro-phenyl)-6-cyclopropylmethoxy-pyridin-3-yl]-benzamide], the inhibition at 10 µM on human CB1 receptor is 52%; at human CB2 receptor, 15%. In addition, the concentration giving a half-maximal response (EC50) in the assay with ABCA1 protein worked out at 2770 nM.

`CC(=O)Nc1cnc(OCC2CC2)c(-c2ccc(Cl)cc2)c1` [Example 9, N-[5-(4-chloro-phenyl)-6-cyclopropylmethoxy-pyridin-3-yl]-acetamide]: the results for the inhibition at 10 µM on human CB1 receptor and on human CB2 receptor were 24% and 9.6%, respectively. Besides, in the assay with ABCA1 protein, the “% increase of ABCA1 at 3 μM” value was more than 45% @ 3 μM.

As to `O=C(Nc1cnc(OCC2CC2)c(-c2ccc(Cl)cc2)c1)c1cccnc1` [Example 10, N-[5-(4-chloro-phenyl)-6-cyclopropylmethoxy-pyridin-3-yl]-nicotinamide], the inhibition at 10 µM on human CB1 receptor is 36%; on human CB2 receptor, 28%. In the assay on ABCA1 protein, this compound registered an EC50 of 6510 nM.

For the compound `O=C(Nc1cnc(OCC2CC2)c(-c2ccc(Cl)cc2)c1)c1ccncc1` [Example 11, N-[5-(4-chloro-phenyl)-6-cyclopropylmethoxy-pyridin-3-yl]-isonicotinamide], the inhibition at 10 µM at human CB1 receptor is 25%; on human CB2 receptor, -1.2%. In the assay with ABCA1 protein, the “% increase of ABCA1 at 3 μM” value was more than 45% @ 3 μM.

Turning to `O=C(Nc1cnc(OCC(F)(F)F)c(-c2ccc(Cl)cc2)c1)c1cnccn1` [Example 12, pyrazine-2-carboxylic acid[5-(4-chloro-phenyl)-6-(2,2,2-trifluoro-ethoxy)-pyridin-3-yl]-amide], the inhibition at 10 µM amounted to 22% at human CB1 receptor and 4% on human CB2 receptor. Moreover, the “% increase of ABCA1 at 3 μM” value in the assay with ABCA1 protein is reported as more than 45% @ 3 μM.

Consider `Cc1cc(C(=O)Nc2cnc(OCC(F)(F)F)c(-c3ccc(Cl)cc3)c2)n(C)n1` [Example 13, 2,5-dimethyl-2H-pyrazole-3-carboxylic acid[5-(4-chloro-phenyl)-6-(2,2,2-trifluoro-ethoxy)-pyridin-3-yl]-amide], for which the values for the inhibition at 10 µM on human CB1 receptor and on human CB2 receptor were 16% and 3%, respectively. For the same compound, the “% increase of ABCA1 at 3 μM” value with ABCA1 protein is listed as more than 45% @ 3 μM.

Regarding `Cc1nocc1C(=O)Nc1cnc(OCC(F)(F)F)c(-c2ccc(Cl)cc2)c1` [Example 14, 3-methyl-isoxazole-4-carboxylic acid[5-(4-chloro-phenyl)-6-(2,2,2-trifluoro-ethoxy)-pyridin-3-yl]-amide], the inhibition at 10 µM on human CB1 receptor came to 38%; at human CB2 receptor it was 10%. Further, the “% increase of ABCA1 at 3 μM” value in the assay with ABCA1 protein is more than 45% @ 3 μM.

With `Cn1ccc(C(=O)Nc2cnc(OCC(F)(F)F)c(-c3ccc(Cl)cc3)c2)n1` [Example 15, 1-methyl-1H-pyrazole-3-carboxylic acid[5-(4-chloro-phenyl)-6-(2,2,2-trifluoro-ethoxy)-pyridin-3-yl]-amide], the inhibition at 10 µM came to 27% on human CB1 receptor and 2% on human CB2 receptor. Besides, in the assay with ABCA1 protein, the “% increase of ABCA1 at 3 μM” value was more than 45% @ 3 μM.

In the case of `Cc1cc(C(=O)Nc2cnc(OCC(F)(F)F)c(-c3ccc(Cl)cc3)c2)no1` [Example 16, 5-methyl-3-isoxazolecarboxylic acid[5-(4-chloro-phenyl)-6-(2,2,2-trifluoro-ethoxy)-pyridin-3-yl]-amide], the inhibition at 10 µM on human CB1 receptor is 34%; at human CB2 receptor it was -1%. For the same compound, the concentration for a half-maximal effect (EC50) with ABCA1 protein was 6050 nM.

Turning to `O=C(Nc1cnc(OCC(F)(F)F)c(-c2ccc(Cl)cc2)c1)c1cccnn1` [Example 17, 3-pyridazinecarboxylic acid[5-(4-chloro-phenyl)-6-(2,2,2-trifluoro-ethoxy)-pyridin-3-yl]-amide], the values for the inhibition at 10 µM at human CB1 receptor and on human CB2 receptor were 16% and -3%, respectively. The compound also returned an EC50 in the assay on ABCA1 protein of 2310 nM.

One may read the inhibition as the drop in the measured response relative to a control, in per cent. One may read the EC50 as the concentration giving half of the maximal effect. A high value points to weaker potency.
